Article PMC3578829, “A Small Molecule (Pluripotin) as a Tool for Studying Cancer Stem Cell Biology: Proof of Concept” (PLoS ONE, 2013)

Experiments:
HCT-116 [1] = test: Cell cycle analysis; type: cell-based; conditions: harvested day 5
Procedure: Approximately 5×10^6 cells were washed with PBS, resuspended in 5 ml of 4°C 70% ethyl alcohol (ETOH) and then incubated at 4°C for 30 min. The sample was washed again before the addition of 0.5 ml PBS containing 0.2 mg/ml of RNAse A. The sample was then incubated at 37°C for 15 minutes. Next, 0.5 ml propidium iodide (0.05 mg/ml in PBS) was added and incubated at 4°C in the dark for 15 min. The sample was then analyzed on the FACScan (Becton Dickinson, San Jose, CA) flow cytometer. Modfit software evaluated DNA content with an automatic module to determine the fraction of cells in the cell cycle compartments.

COLO 205 = test: Cell growth after five day exposure; type: cell-based; conditions: 0.1 µM added day 1, harvested 5 days later
Procedure: (§1) Five day exposures were conducted.

HCT-15 [2] = test: Cell growth after five day exposure; type: cell-based; conditions: 0.1 µM added day 1, harvested 5 days later
Procedure: as §1

SW-620 = test: Cell growth after five day exposure; type: cell-based; conditions: 0.1 µM added day 1, harvested 5 days later
Procedure: as §1

HCT-116 [3] = test: Cell growth after five day exposure; type: cell-based; conditions: 0.1 µM added day 1, harvested 5 days later
Procedure: as §1

HT29 = test: Cell growth after five day exposure; type: cell-based; conditions: 0.1 µM added day 1, harvested 5 days later
Procedure: as §1

KM12 [4] = test: Cell growth after five day exposure; type: cell-based; conditions: 0.1 µM added day 1, harvested 5 days later
Procedure: as §1

HCC-2998 = test: Cell growth after five day exposure; type: cell-based; conditions: 0.1 µM added day 1, harvested 5 days later
Procedure: as §1

colon tumor lines [5] = test: FACS analysis of CD326 and CD166, all tumor lines; type: cell-based; conditions: any of the tumor lines; five days of SC-1 treatment
Text: A BD FACsAria (BD Biosciences, San Jose, CA) was utilized for FACS analysis according to standard procedures. The instrument was equipped with a 488 nm 100 mW blue laser, a 638 nm 30 mW red laser, and a 405 nm 50 mW violet laser. The software package Diva 5.0 (BD Biosciences) was used for collection and analysis of data. The alignment of the three lasers in the flow cell was verified prior to running tumor cell samples by running Rainbow Beads (Spherotech). The six colors being used in the analysis were then compensated to account for spectral overlap emitted by the fluorochromes within each laser as well as across the lasers using a semi-automated process. […] The data was then run through the Diva software compensation matrices and the amount of “spectral bleed” from other fluorochromes into the fluorochrome of interest’s channel was determined and automatically compensated.
Treated and untreated cells (1×10^6 cells/condition) were harvested with trypsin EDTA (Invitrogen), washed, and then labeled with a six antibody cocktail (antibodies against the following epitopes: CD44, CD24, CD133, CD326, CD166, and P-glycoprotein in PBS without calcium and magnesium supplemented with 2% FBS) or appropriate isotype control antibodies. […] The specific amounts needed for each labeled antibody were determined through titration studies. […]

colon tumor lines [6] = test: Cloning assay, all colon tumor lines; type: cell-based
Procedure: Culture dishes were transferred to a refrigerator (4°C) for 15 min, to room temperature for 10 min, and then to culture incubators. An upper layer of 0.5 ml culture medium was applied on day 0. Cultures were stained with MTT (1 mg/ml) for visualization and imaging at multiple time intervals (day 7 and 14). Cumulative counts of colonies (diameters, >60 µm) and cumulative volumes of CFU (diameters >120 µm) were determined with an Omnicon FAS-II (Bausch & Lomb, Rochester, NY) following calibration with an Omnicon test plate 3 and polystyrene microspheres embedded in soft agar matrix. The evaluable region of each culture dish (35 contiguous fields equivalent to 51% of the cell layer culture volume) was analyzed. Selective scoring of viable cell groups was achieved by adjustment of the instrument detection threshold to exclude images of nonstained cellular material and debris. The data was analyzed with Lotus Symphony software.

colon cell lines = test: NCI Anticancer Screen growth inhibition; type: cell-based; conditions: 2 day exposure; mean±s.e.m., n = 7 colon cell lines
Text: (n = 6, paired Student’s t test, p = 0.02, Table S1). […] Finally, in a representative SC-1 sensitive tumor line (HCT-116), there was no difference in the distribution of the SC-1 treated cell population across the cell cycle compared to control treated cells (Figure S4).

HCT-15 [7] = test: Limiting dilution tumorigenicity, s.c. xenograft without protein support; type: in vivo, NOD.SCID mice; conditions: HCT-15 treated 5 days with 0.1 µM SC-1
Procedure: as §1
(§2) Six week old female NOD.SCID mice were randomly assigned to each of 20 treatment arms (n = 5/group). Treated and control colon tumor lines were enzymatically harvested and counted prior to dilution in RPMI 1640 (at 10, 100, 1,000, 10,000 cells/inoculum) for subcutaneous injection into the axillary region using a volume of […]. Positive control groups were established such that tumor formation occurred in all mice in approximately one week thus confirming that all tumor lines studied were tumorigenic. Cell inocula for the positive control groups ranged from 1×10^6 to 2.5×10^6. Cell viability of the cell stocks was assessed by trypan blue exclusion prior to dilution for injection and was routinely found to be >95%. Tumor formation was monitored weekly using caliper measurements and the tumor mass was calculated as weight in mg = 1/2×(tumor length)×(tumor width)^2. All experiments were terminated at 120 days or when tumor weight exceeded 2000 mg for any individual mouse. In selected studies, tumor cells were resuspended in Matrigel (50% concentration, BD Biosciences) prior to injection.

KM12 [8] = test: as above; type: in vivo, NOD.SCID mice; conditions: KM12 treated 5 days with 0.1 µM SC-1
Procedure: as §1, §2

Cc1cc(Nc2ncc3c(n2)N(C)C(=O)N(c2cc(NC(=O)c4cccc(C(F)(F)F)c4)ccc2C)C3)n(C)n1 [SC-1]
Distribution of cell population across the cell cycle vs control (HCT-116 [1]): no difference | Fold Change from Initial Inocula (COLO 205): 2 | Fold Change from Initial Inocula (HCT-15 [2]): 19.8 | Fold Change from Initial Inocula (SW-620): 27.5 | Fold Change from Initial Inocula (HCT-116 [3]): 31 | Fold Change from Initial Inocula (HT29): 17.5 | Fold Change from Initial Inocula (KM12 [4]): 20.6 | Fold Change from Initial Inocula (HCC-2998): 4 | CD326 and CD166 surface expression (colon tumor lines [5]): No changes | Cloning efficiency, all tumor lines (colon tumor lines [6]; assay conducted using Matrigel instead of soft agar (data not shown)): increased cloning efficiency | Tumor lines with statistically significant increases in cumulative colony forming unit (CFU) mass (colon tumor lines [6]; soft agar, 0.1 µM SC-1 for five days, vs control treated cells): 5/7 | GI50 (colon cell lines): 91 ± 70 nM | Tumor take rate (HCT-15 [7]; 100 cells inoculated s.c.): 0/5 | Tumor take rate (HCT-15 [7]; 1000 cells inoculated s.c.): 0/5 | Tumor take rate (HCT-15 [7]; 10000 cells inoculated s.c.): 0/5 | Tumor take rate (KM12 [8]; 100 cells inoculated s.c.): 0/5 | Tumor take rate (KM12 [8]; 1000 cells inoculated s.c.): 0/5 | Tumor take rate (KM12 [8]; 10000 cells inoculated s.c.): 1/5
